Assay results from US20240300932A1, “N-PHENYLIMINE DERIVATIVE AND PREPARATION METHOD AND USE THEREOF” (Guizhou University, priority 2023, published 2024).

Legend:
Assay in all cases: Post-emergence herbicidal activity test (stem and leaf spray, pot culture)
Assay type in all cases: in vivo
Details in all cases: 3 weeks after spraying
Trifoliumre pensL. = tested on: Trifoliumre pensL.
Method in brief: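 Pot-grown weeds in loam (pH 7), greenhouse at 20–30 °C, sprayed once post-emergence at the 2–3-leaf stage. Compound in acetone with Tween 80 plus methyl oleate oil (1.5 L/ha), applied at 10, 5 and 2.5 g/mu by spray tower. Effect scored 3 weeks after spraying, averaged over three repeats.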

Abutilon theophrasti = tested on: Abutilon theophrasti
Method in brief: (§1)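 Foliar spray, 2–3-leaf stage, 10/5/2.5 g/mu; acetone/Tween 80 + methyl oleate 1.5 L/ha. Greenhouse 3 wk, 20–30 °C. Score: fresh-wt control, grade 5 ≥85% … grade 0 <5%.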

Echinochloa crusgalli = tested on: Echinochloa crusgalli
Method in brief: as §1

Setaria viridis = tested on: Setaria viridis
Method in brief: as §1

Portulaca oleracea = tested on: Portulaca oleracea
Method in brief: as §1

Amaranthus retroflexus = tested on: Amaranthus retroflexus
Method in brief: as §1

| SMILES | Post-emergence herbicidal activity, Trifoliumre pensL. (grade) (Trifoliumre pensL.; dosage 2.5 g/mu) | Post-emergence herbicidal activity, Trifoliumre pensL. (grade) (Trifoliumre pensL.; dosage 5 g/mu) | Post-emergence herbicidal activity, Trifoliumre pensL. (grade) (Trifoliumre pensL.; dosage 10 g/mu) | Post-emergence herbicidal activity, A. theophrasti (grade) (Abutilon theophrasti; dosage 2.5 g/mu) | Post-emergence herbicidal activity, A. theophrasti (grade) (Abutilon theophrasti; dosage 5 g/mu) | Post-emergence herbicidal activity, A. theophrasti (grade) (Abutilon theophrasti; dosage 10 g/mu) | Post-emergence herbicidal activity, E. crusgalli (grade) (Echinochloa crusgalli; dosage 2.5 g/mu) | Post-emergence herbicidal activity, E. crusgalli (grade) (Echinochloa crusgalli; dosage 5 g/mu) | Post-emergence herbicidal activity, E. crusgalli (grade) (Echinochloa crusgalli; dosage 10 g/mu) | Post-emergence herbicidal activity, S. viridis (grade) (Setaria viridis; dosage 2.5 g/mu) | Post-emergence herbicidal activity, S. viridis (grade) (Setaria viridis; dosage 5 g/mu) | Post-emergence herbicidal activity, S. viridis (grade) (Setaria viridis; dosage 10 g/mu) | Post-emergence herbicidal activity, P. oleracea (grade) (Portulaca oleracea; dosage 2.5 g/mu) | Post-emergence herbicidal activity, P. oleracea (grade) (Portulaca oleracea; dosage 5 g/mu) | Post-emergence herbicidal activity, P. oleracea (grade) (Portulaca oleracea; dosage 10 g/mu) | Post-emergence herbicidal activity, A. retroflexus (grade) (Amaranthus retroflexus; dosage 2.5 g/mu) | Post-emergence herbicidal activity, A. retroflexus (grade) (Amaranthus retroflexus; dosage 5 g/mu) | Post-emergence herbicidal activity, A. retroflexus (grade) (Amaranthus retroflexus; dosage 10 g/mu) |
| --- | --- | --- | --- | --- | --- | --- | --- | --- | --- | --- | --- | --- | --- | --- | --- | --- | --- | --- |
| O=C1C2=C(CCCC2)C(=O)N1c1cc(OCc2nc(-c3ccccc3)no2)c(Cl)cc1F [Compound A25] | 4 (Grade 4: the growth control rate is greater than or equal to 60% and less than 85%) | 5 (Grade 5: the growth control rate is greater than or equal to 85%) | 5 (Grade 5: the growth control rate is greater than or equal to 85%) | 5 (Grade 5: the growth control rate is greater than or equal to 85%) | 5 (Grade 5: the growth control rate is greater than or equal to 85%) | 5 (Grade 5: the growth control rate is greater than or equal to 85%) | 1 (Grade 1: the growth control rate is greater than or equal to 5% and less than 20%) | 2 (Grade 2: the growth control rate is greater than or equal to 20% and less than 40%) | 3 (Grade 3: the growth control rate is greater than or equal to 40% and less than 60%) | 2 (Grade 2: the growth control rate is greater than or equal to 20% and less than 40%) | 3 (Grade 3: the growth control rate is greater than or equal to 40% and less than 60%) | 4 (Grade 4: the growth control rate is greater than or equal to 60% and less than 85%) | 4 (Grade 4: the growth control rate is greater than or equal to 60% and less than 85%) | 5 (Grade 5: the growth control rate is greater than or equal to 85%) | 5 (Grade 5: the growth control rate is greater than or equal to 85%) | 5 (Grade 5: the growth control rate is greater than or equal to 85%) | 5 (Grade 5: the growth control rate is greater than or equal to 85%) | 5 (Grade 5: the growth control rate is greater than or equal to 85%) |
| CC(C)(C)c1ccc(-c2noc(COc3cc(N4C(=O)C5=C(CCCC5)C4=O)c(F)cc3Cl)n2)cc1 [Compound A26] | 4 (Grade 4: the growth control rate is greater than or equal to 60% and less than 85%) | 5 (Grade 5: the growth control rate is greater than or equal to 85%) | 5 (Grade 5: the growth control rate is greater than or equal to 85%) | 5 (Grade 5: the growth control rate is greater than or equal to 85%) | 5 (Grade 5: the growth control rate is greater than or equal to 85%) | 5 (Grade 5: the growth control rate is greater than or equal to 85%) | 1 (Grade 1: the growth control rate is greater than or equal to 5% and less than 20%) | 2 (Grade 2: the growth control rate is greater than or equal to 20% and less than 40%) | 3 (Grade 3: the growth control rate is greater than or equal to 40% and less than 60%) | 2 (Grade 2: the growth control rate is greater than or equal to 20% and less than 40%) | 3 (Grade 3: the growth control rate is greater than or equal to 40% and less than 60%) | 4 (Grade 4: the growth control rate is greater than or equal to 60% and less than 85%) | 4 (Grade 4: the growth control rate is greater than or equal to 60% and less than 85%) | 5 (Grade 5: the growth control rate is greater than or equal to 85%) | 5 (Grade 5: the growth control rate is greater than or equal to 85%) | 5 (Grade 5: the growth control rate is greater than or equal to 85%) | 5 (Grade 5: the growth control rate is greater than or equal to 85%) | 5 (Grade 5: the growth control rate is greater than or equal to 85%) |
| O=C1C2=C(CCCC2)C(=O)N1c1cc(OCc2nc(-c3ccc(I)cc3)no2)c(Cl)cc1F [Compound A27] | 5 (Grade 5: the growth control rate is greater than or equal to 85%) | 5 (Grade 5: the growth control rate is greater than or equal to 85%) | 5 (Grade 5: the growth control rate is greater than or equal to 85%) | 5 (Grade 5: the growth control rate is greater than or equal to 85%) | 5 (Grade 5: the growth control rate is greater than or equal to 85%) | 5 (Grade 5: the growth control rate is greater than or equal to 85%) | 1 (Grade 1: the growth control rate is greater than or equal to 5% and less than 20%) | 2 (Grade 2: the growth control rate is greater than or equal to 20% and less than 40%) | 3 (Grade 3: the growth control rate is greater than or equal to 40% and less than 60%) | 2 (Grade 2: the growth control rate is greater than or equal to 20% and less than 40%) | 3 (Grade 3: the growth control rate is greater than or equal to 40% and less than 60%) | 4 (Grade 4: the growth control rate is greater than or equal to 60% and less than 85%) | 5 (Grade 5: the growth control rate is greater than or equal to 85%) | 5 (Grade 5: the growth control rate is greater than or equal to 85%) | 5 (Grade 5: the growth control rate is greater than or equal to 85%) | 5 (Grade 5: the growth control rate is greater than or equal to 85%) | 5 (Grade 5: the growth control rate is greater than or equal to 85%) | 5 (Grade 5: the growth control rate is greater than or equal to 85%) |
| O=C1C2=C(CCCC2)C(=O)N1c1cc(OCc2nnc(-c3ccccc3F)o2)c(Cl)cc1F [Compound B1] | 5 (Grade 5: the growth control rate is greater than or equal to 85%) | 5 (Grade 5: the growth control rate is greater than or equal to 85%) | 5 (Grade 5: the growth control rate is greater than or equal to 85%) | 5 (Grade 5: the growth control rate is greater than or equal to 85%) | 5 (Grade 5: the growth control rate is greater than or equal to 85%) | 5 (Grade 5: the growth control rate is greater than or equal to 85%) | 1 (Grade 1: the growth control rate is greater than or equal to 5% and less than 20%) | 2 (Grade 2: the growth control rate is greater than or equal to 20% and less than 40%) | 3 (Grade 3: the growth control rate is greater than or equal to 40% and less than 60%) | 2 (Grade 2: the growth control rate is greater than or equal to 20% and less than 40%) | 3 (Grade 3: the growth control rate is greater than or equal to 40% and less than 60%) | 4 (Grade 4: the growth control rate is greater than or equal to 60% and less than 85%) | 5 (Grade 5: the growth control rate is greater than or equal to 85%) | 5 (Grade 5: the growth control rate is greater than or equal to 85%) | 5 (Grade 5: the growth control rate is greater than or equal to 85%) | 5 (Grade 5: the growth control rate is greater than or equal to 85%) | 5 (Grade 5: the growth control rate is greater than or equal to 85%) | 5 (Grade 5: the growth control rate is greater than or equal to 85%) |
